The text below walks through data of patent publication US20180235870A1, “TRANSDERMAL FORMULATIONS FOR DELIVERY OF BERBERINE COMPOUNDS, AND THEIR USE IN THE TREATMENT OF BERBERINE-RESPONSIVE DISEASES AND CONDITIONS” (DELIVRA INC., priority 2015, published 2018).

For data set [1] the following is noted: oral route, published; cited from earlier work.
The test system of data set [2] is male Zucker rat, a model of type-2 diabetes and metabolic disorder. Nature of the data set: Effect of berberine, metformin and simvastatin on body mass, lipid biomarkers, food and water intake, clinical chemistry (Example 18). The note with it: Zucker rats, Days 0 to 28. It is filed as in vivo, obese male Zucker fa/fa rats. The protocol:
All in vivo animal husbandry, treatment regiments, and sample collections were completed by InterVivo. The study was completed using obese male Zucker fa/fa rats (Charles River) at 10 weeks of age. […] Shaving was performed under anaesthesia one day prior to initiation of test article administration. The area was further shaven, as needed, over the course of the dosing period to ensure accurate drug application and absorption. For dosing procedures, animals were restrained and the transdermal test articles applied in a uniform layer over the entire shaved area. The shaved administration area was cleaned daily with paper towel before the subsequent transdermal dose was administered. Animals receiving test articles via oral gavage were restrained, and a ball-tipped gavage needle (18G) attached to a syringe containing the dosing solution was first inserted into the mouth, and then into the stomach. To determine the appropriate depth of insertion of the needle, the position corresponding to the last rib was measured prior to insertion. […] Group A), oral administration of berberine (180 mg/kg/dose; […] Group C), and oral administration of the vehicle (Group D) (Table 19). […] Group F), or with orally-administered metformin (200 mg/kg/dose; Group G). […] On Day 28, the animals were dosed in the morning only, prior to euthanasia and tissue collection. Animal body weights were performed once weekly from Day −34 to −2 and daily from Day −1 to 28. Rats were weighed, and the scales were operated and maintained, according to standard operating procedures. Food and water consumption measurements were taken over a 24 hour period, once weekly, from Days 0 to 28. Blood was collected via tail nick on Day-1 to determine unfasted blood glucose level for group allocation. Whole blood was collected via the saphenous vein or other appropriate route on Days 0, 7, 14, 21 and 28 immediately prior to test article administration. […] On Day 28, subjects were anaesthetized with isoflurane, and whole blood was collected via cardiac puncture 2.5 hours (+/−5 minutes) following treatment administration on this day. […]

Data set [3] in a line: Circulating berberine after chronic administration by various routes (Example 23). The class given is in vivo. As to conditions: male, rat, plasma, oral, 180 mg/kg/dose; 15 days administration BID, Zucker fa/fa rats.
The conditions of data set [4]: rats; cited from earlier work.
For data set [5], the system named is male Zucker fa/fa rat, a model of type 2 diabetes and metabolic disorder. Nature of the data set: Efficacy of transdermal berberine alone and in combination with pharmaceuticals in a model of metabolic syndrome (Example 19). As to conditions: Zucker fa/fa rats. It is filed as in vivo, obese male Zucker fa/fa rats. As for the experimental part:
Fourteen obese male Zucker fa/fa rats at 5 weeks of age were housed for five weeks to the age of 10 weeks. During these five weeks, body weight measurements were taken once a week and once daily health observations were conducted for all animals. […] On Day 28, serum and whole liver was collected. […] Food and water intake measurements were taken once a week during the study period of Day 0 to Day 28. […] A sufficient amount of test article was supplied and formulated. Test article product was administered at a dose of 3.6 g/kg twice a day (e.g. […] Berberine cream was weighed fresh daily at each AM and PM dosing to avoid desiccation of the test article. Daily PO and TD dosing of the test articles took place between the hours of 08:00 to 10:00 and 16:00 to 18:00 for 7 days a week between Day 0 to 27. […] The exact time of dosing (up to the minute) was recorded for each animal on the daily dosing sheets. […] Remaining dosing solutions were stored at 4° C. between dosing periods. […] The animals shaved underwemt gaseous anaesthetic according to SOP ROD28.01 to ensure accuracy and avoid undue stress of the animal. The area was further shaven as needed over the course of the dosing period to ensure accurate drug application and absorption. At dosing, the animals were restrained and the transdermal test articles were applied in a uniform layer over the entire shaved area. […] PTS3028).

[6] abbreviates: averaged over the entire experiment.

In the case of `COc1ccc2cc3[n+](cc2c1OC)CCc1cc2c(cc1-3)OCO2` [berberine, Berberine], in data set [1], the Tmax was around 15 min and the “time to almost complete clearance after administration” value was at most 30 min. In data set [2], the “cholesterol and triglyceride blood counts (in words)” value was “reduced cholesterol and triglyceride blood counts”. The “glucose levels (in words)” value in data set [2] (non-fasting) is on record as “largest reduction in glucose levels”. Further, the concentration at 15 days in data set [3] was determined as 101 ng/mL. For the same compound, the “bioavailability of orally administered berberine” value in data set [4] is listed as “approximately 0.7%”. Also, the “rate of weight gain (grams/day)” value in data set [5] (BID, Day 0 to 28, n=2) came to 3.3 grams/day. For the same compound, in data set [5] (averaged for the entire experiment), the “overall triglyceride levels (mmol/L+/−SEM)” value came to 9.5 ± 1.0 mmol/L. Moreover, in data set [5] (setting [6]), the “overall HbA1c level change (mmol/mmol+/−SEM)” value was 31.3+/−0.7 mmol/mmol, the “overall average food intake (grams+/−SEM)” value is 30.8+/−1.5 grams and the “overall cholesterol level change (mmol/L+/−SEM)” value turned out to be 5.0 ± 0.3 mmol/L. Moreover, in data set [5] (non-fasting glucose, averaged over the entire experiment), the “overall average glucose change (%+/−SEM)” value is given as −24.0+/−0.6%.
